Source: patent US20240409864A1, “Apparatus and Methods for Generating and Analyzing Three-Dimensional Cellular Materials” (Agilent Technologies, Inc., priority 2021, published 2024)

Experiments:
C2C12 spheroids = C2C12 spheroids about 180 and 140 micrometers, final concentration 1 μM, BioFLOAT coating, no centrifugation
Excerpt: (§1) Panc1, HepG2, and C2C12 cell lines were used to form spheroids in an apparatus with wells having the geometry shown at least in FIGS. 2, 3, and 4 of the present disclosure. The wells were coated with either Lipidure® or BioFLOAT® ultra low adhesion coatings according to manufacturer protocols, after which the cell lines were introduced to the well plates and spheroids were formed according to the following protocol: • Apply ULA coatings according to manufacturer's protocols • Use trypsin to detach cells of interest (C2C12, Panc1, or HepG2) and create a single cell suspension • Deactivate trypsin via addition of complete culture media • Perform a cell count • Centrifuge the cell suspension at 250 G for 5 minutes and resuspend the pellet in fresh medium at the required density. • Add 300-1500 cells per well with fresh growth medium to a final volume of 200 ul per well • Centrifuge, if necessary, at 250 G for 5 minutes with low deceleration. Centrifugation helps the cells to come together, if needed. • When desirable tight clusters are formed (typically 3-5 days), proceed with the Seahorse XF assay. • DMEM PH 7.4 media from Seahorse supplemented with glutamine, sodium pyruvate and glucose were used (same concentration as the growth medium). • With a multiple channel, pull out about 100 microliters of spent medium and add 100 microliters of fresh Seahorse medium slowly sliding through the walls. • Follow with 3-5 washes to dilute out the old media from the wells. • Perform desired Seahorse assay-Basal, Mito Stress Test, FCCP addition, or others.
(§2) Next, C2C12 and Panc1 cells were seeded in BioFLOAT® coated spheroid plates as contemplated by the present disclosure at two different concentrations. The cells were allowed to settle without centrifugation and form spheroids for two days. […] The largest cross-sectional diameter was measured to characterize the size of the spheroids.

Panc1 spheroids [1] = conditions: Panc1 spheroids about 325 and 250 micrometers, final concentration 1 μM, BioFLOAT coating, no centrifugation
Excerpt: as §1, §2

Panc1 spheroids [2] = assay: Mitochondrial stress test, oxygen consumption rate (Seahorse XF); assay type: cell-based; conditions: Panc1 spheroids assayed after 8 days; polished plate, 20 microliters Lipidure coating; FIG. 15
Excerpt: (§3) A common test performed on the system described above is a mitochondrial stress test. In this assay a series of injections are delivered through the drug ports of the cartridge in order to measure the response of the biological sample to various compounds (oligomycin, FCCP, rotenone and antimycin). These compounds are preloaded into a drug reservoir (port) on the XF cartridge prior to execution of the assay. When the cartridge is inserted into the instrument it is coupled to a manifold which when activated by a solenoid valve, provides pneumatic pressure to the head space of the reservoir forcing the compound through a small orifice and into the well containing the biological sample.
First, Panc1/HepG2 cells were grown in the well plates generally contemplated by the present disclosure but with only a single concentric lip as well as commercially available plates, followed by the transfer of the spheroids cultured in the commercially available plates to the plates of the present disclosure. The experimental protocol was as follows: • 1. Add 50 ul of Lipidure solution (prepared in ETOH) to the plates. Leave overnight at 37 degrees C. or at 50 degrees C. for 1 hour for the ETOH to evaporate. • 2. Trypsinize the HepG2 with multiple washes of Mg—Ca free PBS to make single cells. Leave in incubator at 37 deg C. for 2-3 mins. • 3. […]

HepG2 spheroids = assay: as above; assay type: cell-based; conditions: HepG2 spheroids assayed after 6 days, 50 microliters Lipidure coating
Excerpt: as §3
The experimental protocol was as follows: • 1. Add 50 ul of Lipidure solution (prepared in ETOH) to the plates. Leave overnight at 37 degrees C. or at 50 degrees C. for 1 hour for the ETOH to evaporate. • 2. Trypsinize the HepG2 with multiple washes of Mg—Ca free PBS to make single cells. Leave in incubator at 37 deg C. for 2-3 mins. • 3. Transfer cells to centrifugal tube and add PBS to fill half the tube then count cells based on density prior to centrifugation. • 4. Centrifuge the cell suspension and resuspend the pellet in fresh medium. • 5. Add 10K cells per well with fresh growth medium (180 ul per well) • 6. Centrifuge, if necessary, at 1000 rpm for 2-3 minutes with low deceleration. Centrifugation helps the cells to come together, if needed. • 7. When desirable tight clusters are formed (3-5 days), proceed with the Seahorse XF assay. • 8. For HepG2, DMEM PH 7.4 media from Seahorse supplemented with glutamine, sodium pyruvate and glucose were used (same concentration as the growth medium). • 9. With a multiple channel, pull out about 150 microliters of spent medium and add 180 microliters of fresh Seahorse medium slowly sliding through the walls. • 10. Follow with 2-3 washes to dilute out the FBS from the wells. • 11. After every wash check if the spheroid is still in the center. The white spot of the spheroid is easily seen on dark lab counter tops. • 12. Follow known protocol for traditional oxygen consumption rate (OCR) assay based on the mitochondrial stress test described in detail above. • 13. Take before and after images to verify the spheroids remain centered throughout. • 14.
Further, and referring to FIGS. 16 and 17, the oxygen consumption rate was performed on wells 1-6 using the mitochondrial stress test described above using HepG2 spheroids generated and assayed after 6 days in a plate with the geometric configuration of the present disclosure.

Molecule | oxygen consumption rate (OCR) after injection (C2C12 spheroids; FIG. 44) | extra cellular acidification rate (ECAR) after injection (C2C12 spheroids; FIG. 45) | oxygen consumption rate (OCR) after injection (Panc1 spheroids [1]; FIG. 42) | extra cellular acidification rate (ECAR) after injection (Panc1 spheroids [1]; FIG. 43) | oxygen consumption rate response (Panc1 spheroids [2]) | oxygen consumption rate response (HepG2 spheroids; polished plate, FIG. 19) | oxygen consumption rate response (HepG2 spheroids; unpolished plate, FIG. 17)
FCCP | increased | increased | increased | increased | good response | good response | good response
CC[C@H]1/C=C/C=C/C[C@@H](C)[C@H](O)[C@@](C)(O)C(=O)[C@@H](C)[C@H](O)[C@@H](C)C(=O)[C@@H](C)[C@H](O)[C@@H](C)/C=C/C(=O)O[C@@H]2[C@H](C)[C@H](CC1)O[C@]1(CC[C@H](C)[C@H](C[C@@H](C)O)O1)[C@H]2C [oligomycin] |  |  |  |  | did not show the dip on oxygen consumption | good response | good response
